Measured values as given in patent US20160273042A1, “GENETIC MARKERS OF ANTIPSYCHOTIC RESPONSE” (SUREGENE, LLC, priority 2013, published 2016).
Several values for one entry are separate records, joined by “and”; a condition that tells them apart may be missing. Equal values may be shown once. Entries after “also recorded” stand apart in the source; their conditions may differ.

Assays:
[1] = hierarchy high / medium / low risk; cited from earlier work
[2] = system: patients of the CATIE study (schizophrenia); experiment: CATIE trial: change in PANSS score (delta PANSS, LOCF) for subjects stratified by GARP genetic signature status; assay type: in vivo, human; conditions: for Delta PANSS, Mean, GARP-1 negative: GARP-1 negative subjects; for Delta PANSS, Mean, GARP-1 negative / Delta PANSS, Mean, GARP-1 positive / Delta PANSS, Mean, GARP-2 negative / Delta PANSS, Mean, GARP-2 positive / Delta PANSS, Mean, GARP-3 negative / Delta PANSS, Mean, GARP-3 positive / Delta PANSS, Mean, GARP-4 negative / Delta PANSS, Mean, GARP-4 positive: LOCF, CATIE Phases 1-2; for response in GARP-1 positive subjects, in words: compared with GARP-1 negative subjects or with other drugs; for response in GARP-1 positive subjects, in words / Delta PANSS, Mean, GARP-1 positive: GARP-1 positive subjects; for Relative efficacy (positive), GARP-1: GARP-1 positive versus negative subjects; for Relative efficacy (positive), GARP-1 / Relative efficacy (positive), GARP-2 / Relative efficacy (positive), GARP-3 / Relative efficacy (positive), GARP-4: t-test; for Delta PANSS, Mean, GARP-2 negative: GARP-2 negative subjects; for response in GARP-2 positive subjects, in words: compared with GARP-2 negative subjects or with other drugs; for response in GARP-2 positive subjects, in words / Delta PANSS, Mean, GARP-2 positive: GARP-2 positive subjects; for Relative efficacy (positive), GARP-2: GARP-2 positive versus negative subjects; for Delta PANSS, Mean, GARP-3 negative: GARP-3 negative subjects; for Delta PANSS, Mean, GARP-3 positive / response in GARP-3 positive subjects, in words: GARP-3 positive subjects; for Relative efficacy (positive), GARP-3: GARP-3 positive versus negative subjects; for Delta PANSS, Mean, GARP-4 negative: GARP-4 negative subjects; for Delta PANSS, Mean, GARP-4 positive: GARP-4 positive subjects; for Relative efficacy (positive), GARP-4: GARP-4 positive versus negative subjects; for response in GARP-3 positive subjects, in words: compared with GARP-3 negative subjects or with other drugs
Method: The CATIE study, a large federally funded clinical trial designed to assess the efficacy of antipsychotics in a real world setting, is a valuable resource for determining the role of genes in baseline psychopathology and drug response (Lieberman et al., 2005; Stroup et al., 2003). […] Additionally, whole genome SNP genotyping was performed for roughly half of the trial participants (Sullivan et al., 2008).
Genotype and phenotype data for the CATIE trial were recently made available to qualified researchers through the NIMH Center for Collaborative Genetic Studies on Mental Disorders. The sample consisted of a total of 738 patients. Further details on the patient population are described in the study by Sullivan and coworkers (Sullivan et al., 2008). The CATIE SNP genotype data evaluated included a total of 492,900 SNPs located throughout the genome.
The design of the CATIE study has been described in detail by others (Lieberman et al., 2005; Stroup et al., 2003). […] Subjects that failed Phase 1 treatment with the typical antipsychotic perphenazine were treated differently than those subjects that failed phase I treatment with an atypical antipsychotic. Instead of entering into Phase II of the trial, subjects who switched from perphenazine entered Phase IB. […] Subjects who failed Phase IB then entered Phase II.
A total of 738 subjects consented to provide DNA for genetic study. […] Only retrospective genetic analyses, judged to be exempt from human studies requirements by an IRB, were conducted in the current study. For the genetic analyses presented herein, the inventors combined and evaluated drug response data for Phase IA, Phase IB, and Phase II of the CATIE study. All tested patients were studied using well established clinical endpoints comparing baseline, intermediate, and last observation carried forward (LOCF) for the PANSS scores using CATIE data. LOCF analysis is a commonly used clinical endpoint for clinical trials for neuropsychiatric drugs, with particular changes in PANSS scores being used to indicate clinically significant response (Leucht et al., 2009).
Using the clinical data from the CATIE trial, the inventors derived several different metrics used for quantifying response in clinical trials of antipsychotic medications. The most commonly used psychometric instrument is the Positive and Negative Syndrome Scale (PANSS), a 30-item semi-quantitative instrument scored by clinical professionals (Kay et al., 1987). The greater the decrease in PANSS score, the better the clinical response. The most direct measure of clinical response is absolute change in PANSS score (delta PANSS). In addition to absolute change, the improvement is often reported as a percentage change from baseline PANSS score.
As mentioned previously, the mean change in PANSS at LOCF provides an important measure of efficacy in patients undergoing antipsychotic treatments. Indeed, many pivotal trials in the psychosis field used absolute and/or percentage change in PANSS Score as the primary endpoint (Leucht et al., 2009). […] Therefore, the inventors determined the impact of segmentation by GARP genetic signature status on the quantitative measure of clinical improvement—delta PANSS (for LOCF).
Each table lists the six drugs used during the first two phases of the CATIE trial.

[3] = system: psychotic symptoms (PANSS); conditions: difference in mean response drug minus placebo arm, divided by standard deviation; negative = greater reduction in PANSS; cited from earlier work
[4] = system: psychotic symptoms (PANSS); conditions: versus first generation antipsychotics; cited from earlier work

Compound | risk for weight gain, classification [1] | Delta PANSS, Mean, GARP-1 negative [2] | response in GARP-1 positive subjects, in words [2] | response in GARP-1 positive subjects, in words ([2]; listed as ziprasidone) | Delta PANSS, Mean, GARP-1 positive [2] | Relative efficacy (positive), GARP-1 [2] | Delta PANSS, Mean, GARP-2 negative [2] | response in GARP-2 positive subjects, in words [2] | Delta PANSS, Mean, GARP-2 positive [2] | Relative efficacy (positive), GARP-2 [2] | Delta PANSS, Mean, GARP-3 negative [2] | Delta PANSS, Mean, GARP-3 positive [2] | Relative efficacy (positive), GARP-3 [2] | Delta PANSS, Mean, GARP-4 negative [2] | Delta PANSS, Mean, GARP-4 positive [2] | Relative efficacy (positive), GARP-4 [2] | Effect Size vs. Placebo [3] | Effect Size vs. FGA [4] | response in GARP-3 positive subjects, in words [2] | worse response of GARP-2 positive than GARP-2 negative patients ([2]; difference in delta PANSS, GARP-2 positive vs negative)
O=C1Cc2cc(CCN3CCN(c4nsc5ccccc45)CC3)c(Cl)cc2N1 [Ziprasidone, ziprasidone] | low risk | −2.94 | worsening of symptoms | decreased response; also recorded: responded particularly poorly; also recorded: NON-response | 12.72 and 12.7 | Decreased | 3.51 | enhanced response | −2.8 | Enhanced | −0.1 | −4.5 | Neutral | 0.4 | −4.3 | Neutral | −0.48 | −0.04 | – | –
OCCN1CCN(CCCN2c3ccccc3Sc3ccc(Cl)cc32)CC1 [Perphenazine, perphenazine] | – | −6.40 | decreased response; also recorded: Neither quetiapine nor perphenazine demonstrated efficacy | – | 2.84 and 2.8 | Decreased | 0.52 | enhanced response; also recorded: responded better; also recorded: superior efficacy | – | Enhanced | −5.5 | 0.7 | Neutral | −4.7 | −3.0 | Neutral | – | – | – | –
O=C1CCc2ccc(OCCCCN3CCN(c4cccc(Cl)c4Cl)CC3)cc2N1 [aripiprazole] | low risk | – | NON-response | – | – | – | – | – | – | – | – | – | – | – | – | – | – | – | – | –
Cc1cc2c(s1)Nc1ccccc1N=C2N1CCN(C)CC1 [Olanzapine, olanzapine] | high risk | −7.48 | – | – | – | Enhanced | −10.73 | – | – | Neutral | −9.5 | −6.3 | Neutral | −9.0 | −9.3 | Neutral | – | – | – | –
OCCOCCN1CCN(C2=Nc3ccccc3Sc3ccccc32)CC1 [Quetiapine, quetiapine] | medium risk | −0.53 | Neither quetiapine nor perphenazine demonstrated efficacy | – | – | Neutral | −2.86 | decreased response; also recorded: responded worse; also recorded: lack of efficacy | 1.51 and 1.5 | Decreased | −0.1 | −4.3 | Neutral | −0.7 | −1.6 | Neutral | −0.42 | 0.01 | enhanced response; also recorded: responded significantly better | –
Cc1nc2n(c(=O)c1CCN1CCC(c3noc4cc(F)ccc34)CC1)CCCC2 [Risperidone, risperidone] | medium risk | −4.55 | enhanced response; also recorded: significant efficacy | – | – | Enhanced | −4.65 | superior efficacy | – | Neutral | −6.9 | 2.1 | Decreased | −5.4 | −6.7 | Neutral | −0.59 | −0.25 | decreased response; also recorded: responded poorly | –
CN1CCN(C2=Nc3cc(Cl)ccc3Nc3ccccc32)CC1 [Clozapine, clozapine] | – | −15.32 | – | – | −14.0 | – | −24.33 | – | – | – | −13.6 | −31 | – | −13.4 | −26.3 | – | – | – | – | ~20 points
